pIC50: −log10 of the molar value.
Test system: 953936-095-R-J2-PDC spheroids with HUVEC/MSC, viability
Assay: Anticancer human tumor 953936-095-R-J2-PDC patient-derived cervical squamous cell carcinoma cell line growth inhibition [PI3K]
Details: for pIC50: curve of first compound; for viability, T/C: stronger effect = lower value
Summary of the method: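 Agents were dosed from a top concentration near clinical Cmax (otherwise 10 microM) in half-log decrements, alone or combined with PI3K inhibitors. The spheroids contain tumor cells plus endothelial (HUVEC) and MSC stroma; viability is measured.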

[1] = second compound 0.0316 µM, first compound 0.0316 µM
[2] = second compound 0.0316 µM, first compound 0.1 µM
[3] = second compound 0.0316 µM, first compound 0.316 µM
[4] = second compound 0.0316 µM, first compound 1 µM
[5] = second compound 0.0316 µM, first compound 3.16 µM
[6] = second compound 0.0316 µM, first compound 10 µM
[7] = second compound 0.1 µM, first compound 0.0316 µM
[8] = second compound 0.1 µM, first compound 0.1 µM
[9] = second compound 0.1 µM, first compound 0.316 µM
[10] = second compound 0.1 µM, first compound 1 µM
[11] = second compound 0.1 µM, first compound 3.16 µM
[12] = second compound 0.1 µM, first compound 10 µM
[13] = second compound 0.316 µM, first compound 0.0316 µM
[14] = second compound 0.316 µM, first compound 0.1 µM
[15] = second compound 0.316 µM, first compound 0.316 µM
[16] = second compound 0.316 µM, first compound 1 µM
[17] = second compound 0.316 µM, first compound 3.16 µM
[18] = second compound 0.316 µM, first compound 10 µM
[19] = second compound 1 µM, first compound 0.0316 µM
[20] = second compound 1 µM, first compound 0.1 µM
[21] = second compound 1 µM, first compound 0.316 µM
[22] = second compound 1 µM, first compound 1 µM
[23] = second compound 1 µM, first compound 3.16 µM
[24] = second compound 1 µM, first compound 10 µM
[25] = second compound 3.16 µM, first compound 0.0316 µM
[26] = second compound 3.16 µM, first compound 0.1 µM
[27] = second compound 3.16 µM, first compound 0.316 µM
[28] = second compound 3.16 µM, first compound 1 µM
[29] = second compound 3.16 µM, first compound 3.16 µM
[30] = second compound 3.16 µM, first compound 10 µM
[31] = second compound 10 µM, first compound 0.0316 µM
[32] = second compound 10 µM, first compound 0.1 µM
[33] = second compound 10 µM, first compound 0.316 µM
[34] = second compound 10 µM, first compound 1 µM
[35] = second compound 10 µM, first compound 3.16 µM
[36] = second compound 10 µM, first compound 10 µM
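Note: spheroids exposed to compounds for seven days before read-out.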

Question: With Cn1ncc(Cl)c1-c1cc(C(=O)NC(CN)Cc2cccc(F)c2)sc1Cl (stereo unspecified) + CC(Nc1ncnc2nc[nH]c12)c1cc2cccc(Cl)c2c(=O)n1-c1ccccc1 as the molecule, how does the pIC50 (second compound 0.0316 µM) read?
Answer: 6.20

Question: And the pIC50 (second compound 0.1 µM)?
Answer: 6.21

Question: And the pIC50 (second compound 0.316 µM)?
Answer: 6.26

Question: What about the pIC50 (second compound 1 µM) of the same molecule?
Answer: 6.31

Question: What about the pIC50 (second compound 3.16 µM) of the same molecule?
Answer: 6.33

Question: And the pIC50 (second compound 10 µM)?
Answer: 6.84

Question: And the viability, T/C [1]?
Answer: 96.5%

Question: What about the viability, T/C [2] of the same molecule?
Answer: 90.2%

Question: And the viability, T/C [3]?
Answer: 67.9%

Question: And the viability, T/C [4]?
Answer: 36.9%

Question: What about the viability, T/C [5] of the same molecule?
Answer: 21.8%

Question: And the viability, T/C [6]?
Answer: 12%

Question: What about the viability, T/C [7] of the same molecule?
Answer: 95.2%

Question: What about the viability, T/C [8] of the same molecule?
Answer: 90%

Question: What about the viability, T/C [9] of the same molecule?
Answer: 67%

Question: What about the viability, T/C [10] of the same molecule?
Answer: 37.5%

Question: And the viability, T/C [11]?
Answer: 20%

Question: And the viability, T/C [12]?
Answer: 14.9%

Question: What about the viability, T/C [13] of the same molecule?
Answer: 94.1%

Question: And the viability, T/C [14]?
Answer: 81.6%

Question: What about the viability, T/C [15] of the same molecule?
Answer: 58.4%

Question: What about the viability, T/C [16] of the same molecule?
Answer: 40%

Question: And the viability, T/C [17]?
Answer: 22.4%

Question: What about the viability, T/C [18] of the same molecule?
Answer: 12.6%

Question: What about the viability, T/C [19] of the same molecule?
Answer: 95.5%

Question: What about the viability, T/C [20] of the same molecule?
Answer: 83.5%

Question: What about the viability, T/C [21] of the same molecule?
Answer: 58.1%

Question: And the viability, T/C [22]?
Answer: 36.3%

Question: What about the viability, T/C [23] of the same molecule?
Answer: 18.1%

Question: What about the viability, T/C [24] of the same molecule?
Answer: 13.5%

Question: What about the viability, T/C [25] of the same molecule?
Answer: 82.3%

Question: And the viability, T/C [26]?
Answer: 77.8%

Question: What about the viability, T/C [27] of the same molecule?
Answer: 56.7%

Question: And the viability, T/C [28]?
Answer: 34.4%

Question: What about the viability, T/C [29] of the same molecule?
Answer: 18%

Question: What about the viability, T/C [30] of the same molecule?
Answer: 8.95%

Question: What about the viability, T/C [31] of the same molecule?
Answer: 55.5%

Question: What about the viability, T/C [32] of the same molecule?
Answer: 54.5%

Question: What about the viability, T/C [33] of the same molecule?
Answer: 42.9%

Question: What about the viability, T/C [34] of the same molecule?
Answer: 30.5%

Question: What about the viability, T/C [35] of the same molecule?
Answer: 14.6%

Question: What about the viability, T/C [36] of the same molecule?
Answer: 5.78%

Question: How did the pIC50 (second compound 0.0316 µM) turn out when Cn1nccc1Nc1nccc(-c2ccn(C(CO)c3ccc(Cl)c(F)c3)c(=O)c2)n1 (stereo unspecified) + CC(Nc1ncnc2nc[nH]c12)c1cc2cccc(Cl)c2c(=O)n1-c1ccccc1 was run?
Answer: < 5.00

Question: What about the pIC50 (second compound 0.1 µM) of the same molecule?
Answer: < 5.00

Question: What about the pIC50 (second compound 0.316 µM) of the same molecule?
Answer: < 5.00

Question: What about the pIC50 (second compound 1 µM) of the same molecule?
Answer: < 5.00

Question: And the pIC50 (second compound 3.16 µM)?
Answer: < 5.00

Question: And the pIC50 (second compound 10 µM)?
Answer: < 5.00

Question: And the viability, T/C [1]?
Answer: 90.7%

Question: And the viability, T/C [2]?
Answer: 100%

Question: What about the viability, T/C [3] of the same molecule?
Answer: 92%

Question: What about the viability, T/C [4] of the same molecule?
Answer: 102%

Question: And the viability, T/C [5]?
Answer: 88.3%

Question: What about the viability, T/C [6] of the same molecule?
Answer: 80.1%

Question: And the viability, T/C [7]?
Answer: 94.3%

Question: And the viability, T/C [8]?
Answer: 90.6%

Question: And the viability, T/C [9]?
Answer: 91%

Question: And the viability, T/C [10]?
Answer: 90.8%

Question: And the viability, T/C [11]?
Answer: 88%

Question: And the viability, T/C [12]?
Answer: 66%

Question: What about the viability, T/C [13] of the same molecule?
Answer: 98.2%

Question: What about the viability, T/C [14] of the same molecule?
Answer: 97.2%

Question: And the viability, T/C [15]?
Answer: 91.6%

Question: And the viability, T/C [16]?
Answer: 83.8%

Question: And the viability, T/C [17]?
Answer: 75.6%

Question: And the viability, T/C [18]?
Answer: 73.6%

Question: And the viability, T/C [19]?
Answer: 102%

Question: And the viability, T/C [20]?
Answer: 76.9%

Question: What about the viability, T/C [21] of the same molecule?
Answer: 95.9%

Question: What about the viability, T/C [22] of the same molecule?
Answer: 86.1%

Question: And the viability, T/C [23]?
Answer: 81.4%

Question: And the viability, T/C [24]?
Answer: 82.4%

Question: And the viability, T/C [25]?
Answer: 74.6%

Question: And the viability, T/C [26]?
Answer: 69.9%

Question: And the viability, T/C [27]?
Answer: 70.7%

Question: And the viability, T/C [28]?
Answer: 76.4%

Question: And the viability, T/C [29]?
Answer: 68.8%

Question: And the viability, T/C [30]?
Answer: 77.3%

Question: And the viability, T/C [31]?
Answer: 53.7%

Question: And the viability, T/C [32]?
Answer: 52.3%

Question: What about the viability, T/C [33] of the same molecule?
Answer: 57.4%

Question: What about the viability, T/C [34] of the same molecule?
Answer: 51.6%

Question: What about the viability, T/C [35] of the same molecule?
Answer: 51.1%

Question: What about the viability, T/C [36] of the same molecule?
Answer: 56.9%

Question: Cn1ncnc1[C@H]1c2n[nH]c(=O)c3cc(F)cc(c23)N[C@@H]1c1ccc(F)cc1 + CC(Nc1ncnc2nc[nH]c12)c1cc2cccc(Cl)c2c(=O)n1-c1ccccc1 was tested. Which pIC50 (second compound 0.0316 µM) did it give?
Answer: < 7.00

Question: And the pIC50 (second compound 0.1 µM)?
Answer: < 7.00

Question: And the pIC50 (second compound 0.316 µM)?
Answer: < 7.00

Question: What about the pIC50 (second compound 1 µM) of the same molecule?
Answer: < 7.00

Question: And the pIC50 (second compound 3.16 µM)?
Answer: < 7.00

Question: What about the pIC50 (second compound 10 µM) of the same molecule?
Answer: < 7.00

Question: What about the viability, T/C (second compound 0.0316 µM, first compound 0.000316 µM) of the same molecule?
Answer: 110%

Question: And the viability, T/C (second compound 0.0316 µM, first compound 0.001 µM)?
Answer: 95.1%

Question: And the viability, T/C (second compound 0.0316 µM, first compound 0.00316 µM)?
Answer: 104%

Question: And the viability, T/C (second compound 0.0316 µM, first compound 0.01 µM)?
Answer: 98.8%

Question: What about the viability, T/C [1] of the same molecule?
Answer: 91.7%

Question: And the viability, T/C [2]?
Answer: 96.7%

Question: What about the viability, T/C (second compound 0.1 µM, first compound 0.000316 µM) of the same molecule?
Answer: 100%

Question: What about the viability, T/C (second compound 0.1 µM, first compound 0.001 µM) of the same molecule?
Answer: 99.3%

Question: What about the viability, T/C (second compound 0.1 µM, first compound 0.00316 µM) of the same molecule?
Answer: 105%

Question: And the viability, T/C (second compound 0.1 µM, first compound 0.01 µM)?
Answer: 99.7%

Question: And the viability, T/C [7]?
Answer: 101%

Question: What about the viability, T/C [8] of the same molecule?
Answer: 90.1%

Question: And the viability, T/C (second compound 0.316 µM, first compound 0.000316 µM)?
Answer: 99.5%

Question: What about the viability, T/C (second compound 0.316 µM, first compound 0.001 µM) of the same molecule?
Answer: 96.8%

Question: And the viability, T/C (second compound 0.316 µM, first compound 0.00316 µM)?
Answer: 110%

Question: And the viability, T/C (second compound 0.316 µM, first compound 0.01 µM)?
Answer: 92.9%

Question: And the viability, T/C [13]?
Answer: 101%

Question: What about the viability, T/C [14] of the same molecule?
Answer: 91.9%

Question: What about the viability, T/C (second compound 1 µM, first compound 0.000316 µM) of the same molecule?
Answer: 104%

Question: And the viability, T/C (second compound 1 µM, first compound 0.001 µM)?
Answer: 90.7%

Question: What about the viability, T/C (second compound 1 µM, first compound 0.00316 µM) of the same molecule?
Answer: 90.2%

Question: And the viability, T/C (second compound 1 µM, first compound 0.01 µM)?
Answer: 84%

Question: And the viability, T/C [19]?
Answer: 101%

Question: And the viability, T/C [20]?
Answer: 86.9%

Question: And the viability, T/C (second compound 3.16 µM, first compound 0.000316 µM)?
Answer: 87.2%

Question: And the viability, T/C (second compound 3.16 µM, first compound 0.001 µM)?
Answer: 78.5%

Question: And the viability, T/C (second compound 3.16 µM, first compound 0.00316 µM)?
Answer: 79.8%

Question: And the viability, T/C (second compound 3.16 µM, first compound 0.01 µM)?
Answer: 81.5%

Question: What about the viability, T/C [25] of the same molecule?
Answer: 78%

Question: And the viability, T/C [26]?
Answer: 81.3%

Question: What about the viability, T/C (second compound 10 µM, first compound 0.000316 µM) of the same molecule?
Answer: 56.8%

Question: And the viability, T/C (second compound 10 µM, first compound 0.001 µM)?
Answer: 57.8%

Question: And the viability, T/C (second compound 10 µM, first compound 0.00316 µM)?
Answer: 56.9%

Question: And the viability, T/C (second compound 10 µM, first compound 0.01 µM)?
Answer: 61.9%

Question: What about the viability, T/C [31] of the same molecule?
Answer: 58.7%

Question: What about the viability, T/C [32] of the same molecule?
Answer: 58.9%

Source: PubChem BioAssay AID1963971 (Molecular Pharmacology Branch, DTP, NCI, 2024)
